This note sets out measurements from ChEMBL document CHEMBL2380262, “Pyrrolidine analogs of GZ-793A: synthesis and evaluation as inhibitors of the vesicular monoamine transporter-2 (VMAT2)” (Bioorg Med Chem Lett, 2013).

Usually Ki stands for the equilibrium dissociation constant of an inhibitor or competing ligand from its target.

Molecules are shown by their SMILES.

The target in assay [1] is T1, Synaptic vesicular amine transporter (Rattus norvegicus, UniProt Q01827). As to the kind of experiment: Inhibition of VMAT2-mediated [3H]DA uptake in rat striatal synaptic vesicles by liquid scintillation spectroscopic analysis.
T1 sequence (Q01827 whole entry): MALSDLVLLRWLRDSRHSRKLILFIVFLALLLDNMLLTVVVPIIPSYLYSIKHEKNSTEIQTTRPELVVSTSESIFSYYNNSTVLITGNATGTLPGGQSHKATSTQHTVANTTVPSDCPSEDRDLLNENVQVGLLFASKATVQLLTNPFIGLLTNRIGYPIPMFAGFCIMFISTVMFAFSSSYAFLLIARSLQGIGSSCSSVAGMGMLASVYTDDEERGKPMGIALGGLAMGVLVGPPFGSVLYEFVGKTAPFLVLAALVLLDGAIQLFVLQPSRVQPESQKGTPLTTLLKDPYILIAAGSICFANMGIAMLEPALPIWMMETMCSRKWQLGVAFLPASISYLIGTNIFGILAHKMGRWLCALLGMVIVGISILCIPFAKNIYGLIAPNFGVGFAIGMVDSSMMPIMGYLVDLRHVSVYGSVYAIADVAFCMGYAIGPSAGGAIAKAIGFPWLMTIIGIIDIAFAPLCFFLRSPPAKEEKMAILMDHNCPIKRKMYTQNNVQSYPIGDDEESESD
Assay [2] deals with T1, Synaptic vesicular amine transporter. As to the kind of experiment: Displacement of [3H]DTBZ from VMAT2 in Sprague-Dawley rat synaptic vesicle membranes after 30 mins by scintillation counting analysis. Format: cell membranes, Membrane.

With `OC[C@H](O)CN1[C@H](CCc2ccccc2)CC[C@@H]1CCc1ccccc1`, the inhibition constant (Ki) was 0.279 µM in assay [1] and 5.91 µM in assay [2].
On the same counts, the results for `COc1ccccc1CC[C@@H]1CC[C@H](CCc2ccccc2OC)N1C[C@@H](O)CO` are 0.27 µM and 2.35 µM.
For `COc1ccc(CC[C@@H]2CC[C@H](CCc3ccc(OC)cc3)N2C[C@@H](O)CO)cc1`, the Ki worked out at 0.049 µM in assay [1] and 3.94 µM in assay [2].
With `OC[C@H](O)CN1[C@H](CCc2ccc3c(c2)OCO3)CC[C@@H]1CCc1ccc2c(c1)OCO2`, the Ki in assay [1] turned out to be 0.269 µM; in assay [2] it was 8.47 µM.
As for `COc1ccc(CC[C@@H]2CC[C@H](CCc3ccc(OC)c(OC)c3)N2C[C@@H](O)CO)cc1OC`, the Ki in assay [1] is 3.78 µM; in assay [2], > 100 µM.
